# Test results as given in patent US11986471B2, “Compounds and methods of use” (Tango Therapeutics, Inc., priority 2018, dated 2024).
# Experiments:
# PRMT5 [1] = molecular target: T1, PRMT5 (Homo sapiens, UniProt O14744); test: PRMT5 IC50 assay in the presence of SAM as cofactor; type: biochemical
# T1 construct: purchased Viva (custom protein)
# Method in brief: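 MTA-dependent versus SAM-dependent inhibition of human PRMT5 was assessed by IC50; conversion factors of 13.5 and 1.5 gave the corresponding Ki.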
# PRMT5 [2] = molecular target: T1, PRMT5; test: PRMT5 IC50 assay with no cofactor; type: biochemical
# Method in brief: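 Cofactor-free, SAM and MTA formats; IC50 μM; Ki = IC50/1.5 for SAM, IC50/13.5 for MTA.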
# PRMT5 [3] = molecular target: T1, PRMT5; test: PRMT5 IC50 assay in the presence of MTA as cofactor; type: biochemical; details: for IC50: PRMT5, MTA as cofactor
# Method in brief: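 For the SAM-containing format, dividing IC50 by 1.5 yields Ki; for the MTA-containing format the divisor is 13.5. A third format without cofactor gives IC50 alone.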
# HAP1 MTAP-intact = test: SDMA in-cell western assay, HAP1 MTAP-intact cell line; type: cell-based; details: Homo sapiens
# Method in brief: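 IC50 values come from SDMA in-cell western staining of HAP1 cells. The MTAP-intact line carries endogenous MTAP, while its MTAP-deleted counterpart lacks MTAP entirely. A selectivity ratio of at least 3 fold marks a compound as MTAP-selective.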
# HAP1 MTAP-deleted = test: SDMA in-cell western assay, HAP1 MTAP-deleted cell line; type: cell-based; details: for IC50: Homo sapiens, HAP1 MTAP-deleted cell line; for MTAP Intact/Deleted Ratio: IC50 ratio HAP1 MTAP-intact / HAP1 MTAP-deleted
# Method in brief: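 Readout is cellular SDMA signal by in-cell western, with IC50 values derived from it. The cells are MTAP-null HAP1, matched to an isogenic MTAP-intact HAP1 line.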
# [4] = ratio between the Ki in the presence of SAM and the Ki in the presence of MTA
# [5] = ratio between Ki in the presence of SAM and Ki in the presence of MTA
# T1 sequence (O14744 whole entry): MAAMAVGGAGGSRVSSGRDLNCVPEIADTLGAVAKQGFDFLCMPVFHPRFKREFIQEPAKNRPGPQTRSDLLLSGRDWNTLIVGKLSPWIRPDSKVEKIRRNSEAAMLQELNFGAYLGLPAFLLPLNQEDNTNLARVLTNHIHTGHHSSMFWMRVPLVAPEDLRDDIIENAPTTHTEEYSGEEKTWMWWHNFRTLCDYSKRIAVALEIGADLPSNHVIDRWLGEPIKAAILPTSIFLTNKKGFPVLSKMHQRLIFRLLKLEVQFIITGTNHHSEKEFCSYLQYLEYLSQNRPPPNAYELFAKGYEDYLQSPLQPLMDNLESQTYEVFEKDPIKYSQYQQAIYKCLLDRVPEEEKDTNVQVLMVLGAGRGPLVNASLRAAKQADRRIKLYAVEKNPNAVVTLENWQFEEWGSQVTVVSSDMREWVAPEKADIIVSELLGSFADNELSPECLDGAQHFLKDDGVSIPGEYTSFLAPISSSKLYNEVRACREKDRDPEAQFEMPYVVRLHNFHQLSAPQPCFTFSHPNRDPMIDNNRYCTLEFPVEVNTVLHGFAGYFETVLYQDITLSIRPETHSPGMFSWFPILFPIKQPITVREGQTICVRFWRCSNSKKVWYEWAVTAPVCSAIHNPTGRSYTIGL
# T1 sequence (Q9BQA1 whole entry partner): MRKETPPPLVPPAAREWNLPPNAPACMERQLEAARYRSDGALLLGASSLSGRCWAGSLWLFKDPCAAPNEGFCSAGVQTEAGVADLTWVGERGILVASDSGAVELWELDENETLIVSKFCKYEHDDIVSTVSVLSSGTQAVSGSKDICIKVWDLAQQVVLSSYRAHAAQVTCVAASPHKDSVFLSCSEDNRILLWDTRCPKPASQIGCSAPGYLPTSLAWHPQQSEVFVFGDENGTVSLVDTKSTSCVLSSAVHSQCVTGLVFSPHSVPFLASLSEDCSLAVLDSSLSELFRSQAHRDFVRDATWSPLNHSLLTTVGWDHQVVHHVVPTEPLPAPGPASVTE
SMILES,IC50 (PRMT5 [1]) [nM],IC50 (PRMT5 [2]) [nM],IC50 (PRMT5 [3]) [nM],IC50 (HAP1 MTAP-intact) [nM],IC50 (HAP1 MTAP-deleted) [nM],IC50 (PRMT5 [2]; read-out: No Co-factor IC50) [nM],SAM/MTA Ratio (PRMT5 [3]; [4]),MTAP Intact/Deleted Ratio (HAP1 MTAP-deleted),SAM/MTA Ratio (PRMT5 [3]; [5])
"O=C(NC[C@H](O)CN1CCc2c(ccc(OCc3cnco3)c2Br)C1)c1cccc(NC2CCC2)c1 [Compound 348, (S)—N-(3-(5-bromo-6-(oxazol-5-ylmethoxy)-3,4-dihydroisoquinolin-2(1H)-yl)-2-hydroxypropyl)-3-(cyclobutylamino)benzamide]",500 to 5000,–,500 to 5000,≥ 10000,≥ 10000,≥ 5000,–,C* (an IC50 ratio of less than 3 fold between the IC50 in the HAP1 MTAP-intact cell line and the HAP1 MTAP-deleted cell line),A (a Ki ratio greater than or equal to 10 fold between the Ki in the presence of SAM and the Ki in the presence of MTA)
CN1CCN(c2cc(C(=O)NC[C@H](O)CN3CCc4cc(OCc5cnco5)ccc4C3)cc(NC3CCC3)n2)CC1 [Compound 448],50 to 500,500 to 5000,50 to 500,< 1000,< 1000,–,A (a Ki ratio greater than or equal to 10 fold between the Ki in the presence of SAM and the Ki in the presence of MTA),C* (an IC50 ratio of less than 3 fold between the IC50 in the HAP1 MTAP-intact cell line and the HAP1 MTAP-deleted cell line),–
"CC(=O)N1CCC(Nc2cc(C(=O)NC[C@H](O)CN3CCc4c(ccc(OCc5cn[nH]c5)c4C)C3)ncn2)CC1 [Compound 253, 6-[(1-acetyl-4-piperidyl)amino]-N-[(2S)-2-hydroxy-3-[5-methyl-6-(1H-pyrazol-4-ylmethoxy)-3,4-dihydro-1H-isoquinolin-2-yl]propyl]pyrimidine-4-carboxamide]",500 to 5000,–,50 to 500,1000 to 10000,1000 to 10000,500 to 5000,–,C* (an IC50 ratio of less than 3 fold between the IC50 in the HAP1 MTAP-intact cell line and the HAP1 MTAP-deleted cell line),A (a Ki ratio greater than or equal to 10 fold between the Ki in the presence of SAM and the Ki in the presence of MTA)
"O=C(NC[C@H](O)CN1CCc2c(ccc(OCc3cnco3)c2Br)C1)c1cc(NC2CCC2)ncn1 [Compound 361, (S)—N-(3-(5-bromo-6-(oxazol-5-ylmethoxy)-3,4-dihydroisoquinolin-2(1H)-yl)-2-hydroxypropyl)-6-(cyclobutylamino)pyrimidine-4-carboxamide]",500 to 5000,–,500 to 5000,≥ 10000,≥ 10000,≥ 5000,–,C* (an IC50 ratio of less than 3 fold between the IC50 in the HAP1 MTAP-intact cell line and the HAP1 MTAP-deleted cell line),A (a Ki ratio greater than or equal to 10 fold between the Ki in the presence of SAM and the Ki in the presence of MTA)
"CCCC(=O)N1CCC(Nc2cc(C(=O)NC[C@H](O)CN3CCc4cc(OCc5cnco5)ccc4C3)ccn2)CC1 [Compound 431, 2-[(1-butanoyl-4-piperidyl)amino]-N-[(2S)-2-hydroxy-3-[6-(oxazol-5-ylmethoxy)-3,4-dihydro-1H-isoquinolin-2-yl]propyl]pyridine-4-carboxamide]",50 to 500,500 to 5000,50 to 500,1000 to 10000,< 1000,–,A (a Ki ratio greater than or equal to 10 fold between the Ki in the presence of SAM and the Ki in the presence of MTA),B* (an IC50 ratio greater than or equal to 3 fold but lower than 10 fold between the IC50 in the HAP1 MTAP-intact cell line and the HAP1 MTAP-deleted cell line),–
"O=C(NC[C@H](O)CN1CCc2c(ccc(OCc3cnco3)c2Cl)C1)c1ccnc(NC2CCC(F)(F)C2)c1 (stereo partly drawn) [Compound 316, N—((S)-3-(5-chloro-6-(oxazol-5-ylmethoxy)-3,4-dihydroisoquinolin-2(1H)-yl)-2-hydroxypropyl)-2-((3,3-difluorocyclopentyl)amino)isonicotinamide]",50 to 500,–,50 to 500,≥ 10000,≥ 10000,≥ 5000,–,C* (an IC50 ratio of less than 3 fold between the IC50 in the HAP1 MTAP-intact cell line and the HAP1 MTAP-deleted cell line),A (a Ki ratio greater than or equal to 10 fold between the Ki in the presence of SAM and the Ki in the presence of MTA)
"Cc1c(OCc2cnco2)ccc2c1CCN(C[C@@H](O)CNC(=O)c1cccc(NC3COC3)c1)C2 [Compound 424, N-[(2S)-2-hydroxy-3-{5-methyl-6-[(1,3-oxazol-5-yl)methoxy]-1,2,3,4-tetrahydroisoquinolin-2-yl}propyl]-3-[(oxetan-3-yl)amino]benzamide]",500 to 5000,–,500 to 5000,≥ 10000,≥ 10000,≥ 5000,–,C* (an IC50 ratio of less than 3 fold between the IC50 in the HAP1 MTAP-intact cell line and the HAP1 MTAP-deleted cell line),A (a Ki ratio greater than or equal to 10 fold between the Ki in the presence of SAM and the Ki in the presence of MTA)

# Further lines, with some results ahead:
IC50 (PRMT5 [1]) [nM],IC50 (PRMT5 [2]) [nM],IC50 (PRMT5 [3]) [nM],IC50 (HAP1 MTAP-intact) [nM],IC50 (HAP1 MTAP-deleted) [nM],IC50 (PRMT5 [2]; read-out: No Co-factor IC50) [nM],SMILES,SAM/MTA Ratio (PRMT5 [3]; [4]),MTAP Intact/Deleted Ratio (HAP1 MTAP-deleted),SAM/MTA Ratio (PRMT5 [3]; [5])
50 to 500,500 to 5000,50 to 500,1000 to 10000,< 1000,–,"CCC(=O)N1CCC(Nc2cc(C(=O)NC[C@H](O)CN3CCc4cc(OCc5cnco5)ccc4C3)ccn2)CC1 [Compound 460, N-[(2S)-2-hydroxy-3-[6-(oxazol-5-ylmethoxy)-3,4-dihydro-1H-isoquinolin-2-yl]propyl]-2-[(1-propanoyl-4-piperidyl)amino]pyridine-4-carboxamide]",A (a Ki ratio greater than or equal to 10 fold between the Ki in the presence of SAM and the Ki in the presence of MTA),B* (an IC50 ratio greater than or equal to 3 fold but lower than 10 fold between the IC50 in the HAP1 MTAP-intact cell line and the HAP1 MTAP-deleted cell line),–
50 to 500,500 to 5000,< 50,1000 to 10000,< 1000,–,"CC(=O)N1CC(Nc2cc(C(=O)NC[C@H](O)CN3CCc4cc(OCc5ocnc5C)ccc4C3)nc(N3CCCCC3)n2)C1 [Compound 534, 6-[(1-acetylazetidin-3-yl)amino]-N-[(2S)-2-hydroxy-3-{6-[(4-methyl-1,3-oxazol-5-yl)methoxy]-1,2,3,4-tetrahydroisoquinolin-2-yl}propyl]-2-(piperidin-1-yl)pyrimidine-4-carboxamide]",A (a Ki ratio greater than or equal to 10 fold between the Ki in the presence of SAM and the Ki in the presence of MTA),A* (an IC50 ratio greater than or equal to 10 fold between the IC50 in the HAP1 MTAP-intact cell line and the HAP1 MTAP-deleted cell line),–
50 to 500,≥ 5000,50 to 500,≥ 10000,≥ 10000,–,"Cc1ncoc1COc1ccc2c(c1C)CCN(C[C@@H](O)CNC(=O)c1cc(CC(C)C)nc(NC3CCC3)c1)C2 [Compound 504, 2-(cyclobutylamino)-N-[(2S)-2-hydroxy-3-{5-methyl-6-[(4-methyl-1,3-oxazol-5-yl)methoxy]-1,2,3,4-trihydroisoquinolin-2-yl}propyl]-6-(2-methylpropyl)pyridine-4-carboxamide]",A (a Ki ratio greater than or equal to 10 fold between the Ki in the presence of SAM and the Ki in the presence of MTA),C* (an IC50 ratio of less than 3 fold between the IC50 in the HAP1 MTAP-intact cell line and the HAP1 MTAP-deleted cell line),–
50 to 500,–,< 50,1000 to 10000,1000 to 10000,50 to 500,CC(=O)N1CC(Nc2cc(C(=O)NC[C@H](O)CN3CCc4cc(OCc5ocnc5C)ccc4C3)cc(N3CCCCC3)n2)C1 [Compound 634],–,B* (an IC50 ratio greater than or equal to 3 fold but lower than 10 fold between the IC50 in the HAP1 MTAP-intact cell line and the HAP1 MTAP-deleted cell line),A (a Ki ratio greater than or equal to 10 fold between the Ki in the presence of SAM and the Ki in the presence of MTA)
500 to 5000,≥ 5000,50 to 500,≥ 10000,≥ 10000,–,"CO[C@H]1CC[C@H](Nc2cc(C(=O)NC[C@H](O)CN3CCc4c(ccc(OCc5cnco5)c4C)C3)ncn2)CC1 [Compound 572, N-[(2S)-2-hydroxy-3-{5-methyl-6-[(1,3-oxazol-5-yl)methoxy]-1,2,3,4-tetrahydroisoquinolin-2-yl}propyl]-6-{[(1r,4r)-4-methoxycyclohexyl]amino}pyrimidine-4-carboxamide]",A (a Ki ratio greater than or equal to 10 fold between the Ki in the presence of SAM and the Ki in the presence of MTA),C* (an IC50 ratio of less than 3 fold between the IC50 in the HAP1 MTAP-intact cell line and the HAP1 MTAP-deleted cell line),–
50 to 500,–,< 50,< 1000,< 1000,50 to 500,CC(=O)N1CCC(Nc2cc(C(=O)NC[C@H](O)CN3CCc4cc(OCc5ocnc5C)ccc4C3)nc(N3CCCCC3)n2)CC1 [Compound 647],–,B* (an IC50 ratio greater than or equal to 3 fold but lower than 10 fold between the IC50 in the HAP1 MTAP-intact cell line and the HAP1 MTAP-deleted cell line),A (a Ki ratio greater than or equal to 10 fold between the Ki in the presence of SAM and the Ki in the presence of MTA)
